Starred links: 1 amine or outer side, 2 acyl side, 3 side chain; linkers in the order of their positions; H or OH if unused. Non-standard residues stand in square brackets, D forms with d. Residues, ends and D or L forms follow the SMILES beside them. Groups on a side chain read outwards from the residue. *: point of attachment. C20 diacid = O=C(O)CCCCCCCCCCCCCCCCCCC(=O)*; γGlu = O=C(O)[C@H](CCC(=O)[*:2])N[*:1]; αMeL = CC(C)C[C@](C)(N)C(=O)O; AEEA = NCCOCCOCC(=O)O; Aib = CC(C)(N)C(=O)O
Legend:
Type in all cases: cell-based
[1] = target: human GcgR (Homo sapiens, UniProt P47871); assay: Functional cAMP activity in the presence of 1% HSA; conditions: read-out: cAMP Rel EC50, hGcgR
Chain of human GcgR (P47871 26-477): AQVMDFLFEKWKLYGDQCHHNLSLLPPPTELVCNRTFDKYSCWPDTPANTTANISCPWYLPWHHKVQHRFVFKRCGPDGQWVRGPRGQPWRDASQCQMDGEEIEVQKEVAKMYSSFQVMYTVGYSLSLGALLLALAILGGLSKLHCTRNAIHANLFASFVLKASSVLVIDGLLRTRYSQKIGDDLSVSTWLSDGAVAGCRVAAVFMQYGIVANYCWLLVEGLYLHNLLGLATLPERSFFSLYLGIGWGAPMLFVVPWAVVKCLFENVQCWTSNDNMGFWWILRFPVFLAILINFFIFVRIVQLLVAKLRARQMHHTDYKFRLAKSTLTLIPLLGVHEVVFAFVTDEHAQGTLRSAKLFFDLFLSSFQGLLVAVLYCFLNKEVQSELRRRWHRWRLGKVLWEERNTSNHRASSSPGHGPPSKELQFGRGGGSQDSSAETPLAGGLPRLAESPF

[2] = target: hGcgR (Homo sapiens, UniProt P47871); assay: Functional cAMP activation in the presence of 0.1% casein (no HSA); conditions: in the presence of 0.1% casein (no HSA); geometric mean; read-out: Relative cAMP EC50, hGcgR;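 further: intracellular cAMP rise after 30 min at 37 °C, read by HTRF against a cAMP standard curve, scaled from buffer only (0%) to maximal control ligand response (100%)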
Chain of hGcgR (P47871 26-477): as above

[3] = target: T1, hGIPR (Homo sapiens, UniProt P48546); assay: Functional cAMP activity in the presence of 1% HSA; conditions: read-out: cAMP Rel EC50, hGIPR
T1 sequence (P48546 22-466): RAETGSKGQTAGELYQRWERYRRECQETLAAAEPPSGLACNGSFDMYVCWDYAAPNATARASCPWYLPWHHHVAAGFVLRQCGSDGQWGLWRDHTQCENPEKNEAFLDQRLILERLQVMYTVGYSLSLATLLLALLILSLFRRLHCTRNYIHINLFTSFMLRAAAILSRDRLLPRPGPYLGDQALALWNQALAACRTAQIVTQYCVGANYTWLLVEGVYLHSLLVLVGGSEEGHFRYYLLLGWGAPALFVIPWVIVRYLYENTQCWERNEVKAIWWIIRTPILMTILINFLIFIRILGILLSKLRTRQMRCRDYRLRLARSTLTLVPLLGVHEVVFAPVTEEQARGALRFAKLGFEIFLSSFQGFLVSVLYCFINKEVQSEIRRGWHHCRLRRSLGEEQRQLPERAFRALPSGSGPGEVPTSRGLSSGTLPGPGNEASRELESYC

[4] = target: T2, hGLP-1R (Homo sapiens, UniProt P43220); assay: Functional cAMP activity in the presence of 1% HSA; conditions: read-out: cAMP Rel EC50, hGLP-1R
T2 sequence (P43220 24-463): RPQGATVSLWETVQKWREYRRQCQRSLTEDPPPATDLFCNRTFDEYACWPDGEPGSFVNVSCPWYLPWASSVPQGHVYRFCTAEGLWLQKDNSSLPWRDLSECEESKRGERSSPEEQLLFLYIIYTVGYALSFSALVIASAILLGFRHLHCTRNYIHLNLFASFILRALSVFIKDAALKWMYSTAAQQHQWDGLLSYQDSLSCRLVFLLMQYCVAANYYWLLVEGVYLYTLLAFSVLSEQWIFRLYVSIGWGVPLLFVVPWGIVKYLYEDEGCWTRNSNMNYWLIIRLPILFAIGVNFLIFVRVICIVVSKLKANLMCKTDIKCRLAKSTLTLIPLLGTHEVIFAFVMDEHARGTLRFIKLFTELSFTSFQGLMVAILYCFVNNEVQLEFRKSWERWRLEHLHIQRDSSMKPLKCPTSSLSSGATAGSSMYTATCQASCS

[5] = target: T1, hGIPR; assay: Functional cAMP activation in the presence of 0.1% casein (no HSA); conditions: in the presence of 0.1% casein (no HSA); geometric mean; read-out: Relative cAMP EC50, hGIPR;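 on Relative cAMP EC50, hGIPR: intracellular cAMP rise after 30 min at 37 °C read by HTRF against a standard curve, scaled between buffer alone (0%) and top control ligand concentration (100%), four-parameter fit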;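 on Relative cAMP EC50, hGLP-1R: intracellular cAMP rise after 30 min at 37 °C read by HTRF, normalized between buffer only (0%) and maximal control ligand (100%), four-parameter variable-slope fit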
[6] = target: T2, hGLP-1R; assay: as above; conditions: in the presence of 0.1% casein (no HSA); geometric mean; read-out: Relative cAMP EC50, hGLP-1R
Description: After a 30-minute incubation at 37° C., the resulting increase in intracellular cAMP is quantitatively determined using the CisBio CAMP Dynamic 2 HTRF Assay Kit (62AM4PEJ). Briefly, cAMP levels within the cell are detected by adding the cAMP-d2 conjugate in cell lysis buffer followed by the antibody anti-cAMP-Eu^3+-Cryptate, also in cell lysis buffer.
Intracellular cAMP levels are determined by extrapolation using a standard curve. Dose response curves of compounds are plotted as the percentage of stimulation normalized to minimum (buffer only) and maximum (maximum concentration of each control ligand) values and analyzed using a four parameter non-linear regression fit with a variable slope (Genedata Screener 13). EC50 is the concentration of compound causing half-maximal simulation in a dose response curve. Each relative EC50 value for the Geometric mean calculation is determined from a curve fitting.

Compound	EC50 [1] [nM]	EC50 [2] [nM]	EC50 [3] [nM]	EC50 [4] [nM]	EC50 [5] [nM]	EC50 [6] [nM]
CC[C@H](C)[C@H](NC(=O)[C@H](Cc1ccccc1)NC(=O)[C@H](C)NC(=O)C(C)(C)NC(=O)[C@H](CCC(N)=O)NC(=O)[C@H](C)NC(=O)[C@H](CCCCNC(=O)COCCOCCNC(=O)CC[C@H](NC(=O)CCCCCCCCCCCCCCCCC(=O)O)C(=O)O)NC(=O)[C@H](CCCCN)NC(=O)[C@H](CC(=O)O)NC(=O)[C@H](CC(C)C)NC(=O)[C@](C)(CC(C)C)NC(=O)[C@H](CCCN)NC(=O)[C@H](CO)NC(=O)[C@H](Cc1ccccc1)NC(=O)[C@H](CC(=O)O)NC(=O)[C@H](CO)NC(=O)[C@@H](NC(=O)[C@H](Cc1ccccc1)NC(=O)[C@@H](NC(=O)CNC(=O)[C@H](CCC(N)=O)NC(=O)C(C)(C)NC(=O)[C@@H](N)Cc1ccc(O)cc1)[C@@H](C)O)[C@@H](C)O)C(=O)N[C@@H](CCC(=O)O)C(=O)N[C@@H](Cc1ccc(O)cc1)C(=O)N[C@@H](CC(C)C)C(=O)N[C@@H](CC(C)C)C(=O)N[C@@H](CCC(=O)O)C(=O)N[C@H](C)C(=O)NCC(=O)N1CCC[C@H]1C(=O)N[C@@H](CO)C(=O)N[C@@H](CO)C(=O)NCC(=O)N[C@@H](C)C(=O)N1CCC[C@H]1C(=O)N1CCC[C@H]1C(=O)N1CCC[C@H]1C(=O)N[C@@H](CCC(=O)O)C(=O)NCC(=O)N[C@@H](CCC(=O)O)C(N)=O [Example 206]	545	2.2	38.8	372	0.224	2.77
CC[C@H](C)[C@H](NC(=O)[C@H](Cc1ccccc1)NC(=O)[C@H](C)NC(=O)C(C)(C)NC(=O)[C@H](CCC(N)=O)NC(=O)[C@H](C)NC(=O)[C@H](CCCCNC(=O)COCCOCCNC(=O)CC[C@H](NC(=O)CCCCCCCCCCCCCCCCC(=O)O)C(=O)O)NC(=O)[C@H](CCCCN)NC(=O)[C@H](CC(=O)O)NC(=O)[C@H](CC(C)C)NC(=O)[C@](C)(CC(C)C)NC(=O)[C@H](CCCN)NC(=O)[C@H](CO)NC(=O)[C@H](Cc1ccccc1)NC(=O)[C@H](CC(=O)O)NC(=O)[C@H](CO)NC(=O)[C@@H](NC(=O)[C@H](Cc1ccccc1)NC(=O)[C@@H](NC(=O)CNC(=O)[C@H](CCC(N)=O)NC(=O)C(C)(C)NC(=O)[C@@H](N)Cc1ccc(O)cc1)[C@@H](C)O)[C@@H](C)O)C(=O)N[C@@H](CCC(=O)O)C(=O)N[C@@H](Cc1ccc(O)cc1)C(=O)N[C@@H](CC(C)C)C(=O)N[C@@H](CC(C)C)C(=O)N[C@@H](CCC(=O)O)C(=O)N[C@H](C)C(=O)NCC(=O)N[C@@H](Cc1ccncc1)C(=O)N[C@@H](CO)C(=O)N[C@@H](CO)C(=O)NCC(=O)N[C@@H](C)C(=O)N1CCC[C@H]1C(=O)N1CCC[C@H]1C(=O)N1CCC[C@H]1C(=O)N[C@@H](CO)C(=O)NCC(=O)N[C@@H](CCC(=O)O)C(N)=O [Example 252]	528	2.61	24.8	504	0.147	3.54
CC[C@H](C)[C@H](NC(=O)[C@H](Cc1ccccc1)NC(=O)[C@H](C)NC(=O)C(C)(C)NC(=O)[C@H](CCC(N)=O)NC(=O)[C@H](C)NC(=O)[C@H](CCCCNC(=O)COCCOCCNC(=O)CC[C@H](NC(=O)CCCCCCCCCCCCCCCCC(=O)O)C(=O)O)NC(=O)[C@H](CCCCN)NC(=O)[C@H](CC(=O)O)NC(=O)[C@H](CC(C)C)NC(=O)[C@](C)(CC(C)C)NC(=O)[C@H](CCCN)NC(=O)[C@H](CO)NC(=O)[C@H](Cc1ccccc1)NC(=O)[C@H](CC(=O)O)NC(=O)[C@H](CO)NC(=O)[C@@H](NC(=O)[C@H](Cc1ccccc1)NC(=O)[C@@H](NC(=O)CNC(=O)[C@H](CCC(N)=O)NC(=O)C(C)(C)NC(=O)[C@@H](N)Cc1ccc(O)cc1)[C@@H](C)O)[C@@H](C)O)C(=O)N[C@@H](CCC(=O)O)C(=O)N[C@@H](Cc1ccc(O)cc1)C(=O)N[C@@H](CC(C)C)C(=O)N[C@@H](CC(C)C)C(=O)N[C@@H](CCC(=O)O)C(=O)N[C@H](C)C(=O)NCC(=O)N1CCC[C@H]1C(=O)N[C@@H](CO)C(=O)N[C@@H](CO)C(=O)NCC(=O)N[C@@H](C)C(=O)N1CCC[C@H]1C(=O)N1CCC[C@H]1C(=O)N1CCC[C@H]1C(=O)N[C@@H](CO)C(=O)NCC(=O)N[C@@H](Cc1c[nH]cn1)C(N)=O [Example 259]	317	2.55	18.4	220	0.114	1.47
CC[C@H](C)[C@H](NC(=O)[C@H](Cc1ccccc1)NC(=O)[C@H](C)NC(=O)C(C)(C)NC(=O)[C@H](CCC(N)=O)NC(=O)[C@H](C)NC(=O)[C@H](CCCCNC(=O)COCCOCCNC(=O)CC[C@H](NC(=O)CCCCCCCCCCCCCCCCC(=O)O)C(=O)O)NC(=O)[C@H](CCCCN)NC(=O)[C@H](CC(=O)O)NC(=O)[C@H](CC(C)C)NC(=O)[C@](C)(CC(C)C)NC(=O)[C@H](CCCCN)NC(=O)[C@H](CO)NC(=O)[C@H](Cc1ccncc1)NC(=O)[C@H](CC(=O)O)NC(=O)[C@H](CO)NC(=O)[C@@H](NC(=O)[C@H](Cc1ccccc1)NC(=O)[C@@H](NC(=O)CNC(=O)[C@H](CCC(N)=O)NC(=O)C(C)(C)NC(=O)[C@@H](N)Cc1ccc(O)cc1)[C@@H](C)O)[C@@H](C)O)C(=O)N[C@@H](CCC(=O)O)C(=O)N[C@@H](Cc1ccc(O)cc1)C(=O)N[C@@H](CC(C)C)C(=O)N[C@H](C(=O)N[C@@H](CCC(=O)O)C(=O)N[C@H](C)C(=O)NCC(=O)N[C@@H](CCC(=O)O)C(=O)N[C@@H](CO)C(=O)N[C@@H](CO)C(=O)NCC(=O)N[C@@H](C)C(=O)N1CCC[C@H]1C(=O)N1CCC[C@H]1C(=O)N1CCC[C@H]1C(=O)N[C@@H](CO)C(=O)NCC(=O)N[C@@H](CO)C(N)=O)[C@@H](C)CC [Example 283]	1470	9.73	47.2	233	0.225	1.16
CC[C@H](C)[C@H](NC(=O)[C@H](Cc1ccccc1)NC(=O)[C@H](C)NC(=O)[C@H](CCCNC(=N)N)NC(=O)[C@H](CCC(N)=O)NC(=O)[C@H](C)NC(=O)[C@H](CCCCNC(=O)COCCOCCNC(=O)CC[C@H](NC(=O)CCCCCCCCCCCCCCCCCCC(=O)O)C(=O)O)NC(=O)[C@H](CCCCN)NC(=O)[C@H](CC(=O)O)NC(=O)[C@H](CC(C)C)NC(=O)[C@](C)(CC(C)C)NC(=O)[C@@H](NC(=O)[C@H](CO)NC(=O)[C@H](Cc1ccc(O)cc1)NC(=O)[C@H](CC(=O)O)NC(=O)[C@H](CO)NC(=O)[C@@H](NC(=O)[C@H](Cc1ccccc1)NC(=O)[C@@H](NC(=O)CNC(=O)[C@H](CCC(N)=O)NC(=O)C(C)(C)NC(=O)[C@@H](N)Cc1ccc(O)cc1)[C@@H](C)O)[C@@H](C)O)[C@@H](C)CC)C(=O)N[C@@H](CCC(=O)O)C(=O)N[C@@H](Cc1ccc(O)cc1)C(=O)N[C@@H](CC(C)C)C(=O)N[C@@H](CC(C)C)C(=O)N[C@@H](CCC(=O)O)C(=O)NCC(=O)NCC(=O)N1CCC[C@H]1C(=O)N[C@@H](CO)C(=O)N[C@@H](CO)C(=O)NCC(=O)N[C@@H](CCC(=O)O)C(=O)N1CCC[C@H]1C(=O)N1CCC[C@H]1C(=O)N1CCC[C@H]1C(=O)N[C@@H](CO)C(=O)NCC(N)=O [Example 313] (H-Y[Aib]QGTFTSDYSI[αMeL]LDKK([AEEA-γGlu-C20 diacid])AQRAFIEYLLEGGPSSGEPPPSG-NH2)	3290	4.11	86.4	135	0.49	0.304
CC[C@H](C)[C@H](NC(=O)[C@H](Cc1ccccc1)NC(=O)C(C)(C)NC(=O)C(C)(C)NC(=O)[C@H](CCC(N)=O)NC(=O)[C@H](C)NC(=O)[C@H](CCCCNC(=O)COCCOCCNC(=O)CC[C@H](NC(=O)CCCCCCCCCCCCCCCCCCC(=O)O)C(=O)O)NC(=O)[C@H](CCCN)NC(=O)[C@H](CC(=O)O)NC(=O)[C@H](CC(C)C)NC(=O)[C@](C)(CC(C)C)NC(=O)[C@@H](NC(=O)[C@H](CO)NC(=O)[C@H](Cc1ccncc1)NC(=O)[C@H](CC(=O)O)NC(=O)[C@H](CO)NC(=O)[C@@H](NC(=O)[C@](C)(Cc1ccccc1F)NC(=O)[C@@H](NC(=O)CNC(=O)[C@H](CCC(N)=O)NC(=O)C(C)(C)NC(=O)[C@@H](N)Cc1ccc(O)cc1)[C@@H](C)O)[C@@H](C)O)[C@@H](C)CC)C(=O)N[C@H](CCC(=O)O)C(=O)N[C@@](C)(Cc1ccc(O)cc1)C(=O)N[C@@H](CC(C)C)C(=O)N[C@@H](CC(C)C)C(=O)N[C@@H](CCC(=O)O)C(=O)NCC(=O)NCC(=O)N1CCC[C@H]1C(=O)N[C@@H](CO)C(=O)N[C@@H](CO)C(=O)NCC(=O)N[C@@H](CCC(=O)O)C(=O)N1CCC[C@H]1C(=O)N1CCC[C@H]1C(=O)N1CCC[C@H]1C(=O)N[C@@H](CO)C(N)=O [Example 366]	1830	4.51	4.27	85.9	0.024	0.744

Reference: US20240270821A1, “GIP/GLP1/GCG TRI-RECEPTOR AGONISTS AND USES THEREOF” (priority 2023, published 2024)
